Patent publication US10946096B2, “Nitrobenzaldehyde proton release for manipulation of cellular acidosis” (priority 2014, dated 2021)
Values joined by “and” are separate entries in the source; they are usually repeats but may differ in a detail not shown here. Identical values can stand only once.

How the values were obtained:
[1] = tested on: PC12 cells; assay: Optical recording of pHi (DCFDA) in PC12 cells before/after UV flash photolysis of NBA; type: cell-based, Rat
Description: Calibrating and Measuring pH with DCFDA. For ratiometric pH, measurements, PC12 cells were loaded with the pH-sensitive dye Carboxy-DCFDA (10 μM in rat aCSF). Nigericin was titrated to a pH of 2.0, 4.0, 5.0, 6.0, 7.0 or 8.0. The emitted fluorescence of DCFDA was recorded from cells at each of the titrated pH solutions. […] Each ratio from individual cells (n=421) was recorded for each pH. A curve of best fit was created (R^2=93.02) and used for the conversion of fluorescence to pHi.
Optic Recording of pHi PC12. DCFDA stock solution was diluted to a concentration of 10 μM in a 3 mL rat aCSF solution. PC12 cells were flashed every 30 second at 495/440 nm for a duration of 900/700 ms, respectively, at 40× magnification and 2 seconds at each wavelength under the 10× magnification. Cells were washed three times with rat aCSF after 10 minutes and prior to recording fluorescence to monitor steady state.
NBA Loading for Focal Acidification of PC12. Seventy-five μL of NBA stock solution was mixed in 3 mL of rat aCSF and bath applied to PC12 cells for 10 minutes. After bath application, cells were washed a minimum of three times with rat aCSF. PC12 cells were exposed to UV light using various flash paradigms. After each exposure, pH was monitored for 2 minutes to quantify pH, acidification.
In our experiments PC12 cells were loaded with the ratiometric fluorescent dye DCFDA. DCFDA was utilized for measuring changes in the intracellular pH (pHi) of a cell over a broad pH range from 2.0 to 7.0 (FIG. 3A, 3B). In this embodiment of the invention, NBA (1 mM) was bath applied at room temperature to PC12 cells and allowed to passively diffuse across the cell membrane. Emitted fluorescence ratios were taken prior to photoactivation of NBA with a flash photolysis paradigm (FIG. 15). Emitted fluorescence ratios were also recorded after NBA was exposed to a wavelength of 350 nm UV light. Using fluorescence microscopy, we can optically record and quantify changes in pHi.

[2] = tested on: in vitro tadpole brainstem; conditions: 10 μM NBA, entire in vitro tadpole brainstem; cited from earlier work
[3] = tested on: MDA-MB-231 cells; assay: Optical recording of pHi (DCFDA) in MDA-MB-231 cells before/after UV flash photolysis of NBA; type: cell-based, human
Description: (§1) Optical Recording of pHi MDA-MB-231. DCFDA stock solution was diluted to a concentration of 10 μM in a 3 mL rat aCSF solution. MBA-MD-231 cells were flashed every 30 seconds at 495/440 nm for a duration of 900/700 ms, respectively, at 40× magnification and 2 seconds at each wavelength under the 10× magnification. […] Optical recording of pHi was monitored for a minimum of 10 minutes to represent a steady state.
(§2) NBA Load for Focal Acidification of MDA-MB231. Seventy-five μL of NBA stock solution was mixed in 3 mL of rat aCSF and bath applied to MDA-MB-231 cells for 10 minutes. After bath application, cells were washed a minimum of three times with rat aCSF. MDA-MB-231 cells were exposed to 60-30-60 UV light paradigm. After each exposure, pH was monitored for 2 minutes to quantify pH, acidification.

[4] = tested on: MDA-MB-231 tumors; assay: Survival of nude mice with MDA-MB-231 tumors after one-time NBA phototherapy; type: in vivo
Description: The described inventive technique is effective in increasing the duration of survival in animals with cancer in vivo. […] NBA was injected into the established triple negative breast cancer MDA-MB-231 tumors of 6 week old nude mice. One hour was permitted to allow adequate diffusion of the NBA into the intracellular space of the cancer cells. Following this one-hour diffusion period, the tumors were exposed to 405 nm photo-activating light (85 mW) for a 60-30-60 excitation paradigm (described previously).
Following their one-time treatment of either NBA with photo-activation or control aCSF, mice were monitored and euthanized in accordance with the Humane Endpoints approved by the University of Texas at San Antonio Institutional Animal Care and Use Committee (IACUC). The control aCSF treated mice (n=4) survived for an average of 16.5±1.66 days from the day of treatment, with survival days from treatment ranging from 14 to 19 days. In contrast, the one-time NBA treated mice survived for 35.2±5.70 days from the day of treatment (FIG. 22). The NBA treated mice survival ranged from 18 to 50 days from treatment.

[5] = tested on: MCF-7 cells; assay: Optical recording of pHi (DCFDA) in MCF-7 cells before/after UV flash photolysis of NBA; type: cell-based, human
Description: as §1, with “pH, MCF-7.” for “pHi MDA-MB-231.”, “MCF-7” for “MBA-MD-231”
as §2, with “MCF-7.” for “MDA-MB231.”, “MCF-7” for “MDA-MB-231”, “pHi” for “pH,”

[6] = tested on: MDA-MB-231 cells; assay: Cell death quantification MDA-MB-231 (blebbing and/or Annexin V); type: cell-based, human; conditions: in less than three hours following NBA flash photolysis
Description: Cell Death Quantification MDA-MB-231. One hour after the UV flash paradigm to induce intracellular acidosis, the cells were lightly washed and the media was replaced with the phosphatidylserine indicator Annexin V Alexa Fluor 568. This solution was made using 10 μL of the stock solution and diluted in 2 ml of rat aCSF. Fifteen minutes was allowed for membrane binding, then fluorescence was monitored for the next hour or until all cells were expressing apoptosis. As with MCF-7 cells, we quantified blebs as cellular death based on previously published findings which described blebbing as an irreversible death process (Andrade et al., Biology of the Cell, 2010, 102(1):25-35).

[7] = tested on: rat ventricular myocytes; conditions: NBA 1 mM, absence of UV exposure; cited from earlier work
[8] = tested on: MCF-7 cells; assay: Cell death quantification MCF-7 (blebbing and/or Annexin V); type: cell-based, human
Description: Apoptosis Indicator. The apoptosis indicator Annexin V Alexa Fluor 568 was stored in a solution containing 25 mM HEPES, 140 mM NaCl, 1 mM EDTA, pH 7.4, plus 0.1% bovine serum albumin (BSA). A 10 μL of stock Annexin V Alexa Fluor 568 was diluted in 2 mL of binding buffer. The binding buffer consisted of: 10 mM HEPES, 140 mM NaCl, and 2.5 mM CaCl2, at a pH of 7.4. Cell Death Quantification MCF-7. After UV flash paradigm, the presences of blebs were observed and recordings of the pH in the intrablebular inflationary space (pHb) were acquired using the DCFDA fluorescence as they expanded. […] We quantified blebs as cellular death based on previously published findings which described blebbing as an irreversible death process (Andrade et al., Biology of the Cell, 2010, 102(1):25-35). Control Experiments. Controls in each experiment were performed by moving 10 mm or more away from the UV or 980 nm exposed region. Recordings of pHi were performed to detect if NBA or the nanoparticle affected the cell or inadvertently uncaged hydrogens in the periphery of the plate. Detection of apoptosis and/or blebs was performed using Annexin V Alexa Fluor 568 and DCFDA optical recording. Control experiments were performed in the following conditions: UV alone, time alone, and NBA alone. Each one of the control experiments was performed for a minimum of 3 hours.

[9] = tested on: PC12 cells; assay: Cell death quantification PC12 (Annexin V Alexa Fluor 568); type: cell-based, Rat
Description: Apoptosis Indicator. The apoptosis indicator Annexin V Alexa Fluor 568 was stored in a solution containing 25 mM HEPES, 140 mM NaCl, 1 mM EDTA, pH 7.4, plus 0.1% bovine serum albumin (BSA). A 10 μL of stock Annexin V Alexa Fluor 568 was diluted in 2 mL of binding buffer. The binding buffer consisted of: 10 mM HEPES, 140 mM NaCl, and 2.5 mM CaCl2, at a pH of 7.4.
Cell Death Quantification PC12. One hour after the UV flash paradigm to induce intracellular acidosis, the cells were lightly washed and the media was replaced with the phosphatidylserine indicator Annexin V Alexa Fluor 568. This solution was made using 10 μL of the stock solution and diluted in 2 ml of rat aCSF. Fifteen minutes was allowed for membrane binding, then fluorescence was monitored for the next hour or until all cells were expressing apoptosis.
Control Experiments. Controls in each experiment were performed by moving 10 mm or more away from the UV or 980 nm exposed region. Recordings of pHi were performed to detect if NBA or the nanoparticle affected the cell or inadvertently uncaged hydrogens in the periphery of the plate. Detection of apoptosis and/or blebs was performed using Annexin V Alexa Fluor 568 and DCFDA optical recording. Control experiments were performed in the following conditions: UV alone, time alone, and NBA alone. Each one of the control experiments was performed for a minimum of 3 hours.

[10] = tested on: MDA-MB-231 tumors; assay: Tumor growth of MDA-MB-231-GFP tumors in nude mice after one-time NBA phototherapy; type: in vivo; conditions: one-time 0.1 ml 1 mM NBA into tumor + 405 nm 60-30-60 illumination, P<0.05
Description: We injected the aggressive triple negative breast cancer MDA-MB-231-GFP (2×10^6 cells) into the mammary fat pad of 5 week old female nude mice. Tumors appeared after approximately one week following injection. Treatment was initiated once the tumors reached and maintained a length of 5 mm for two consecutive days. The mice received a one-time treatment of either a control injection if 0.1 ml of aCSF to the tumor or 0.1 ml of NBA (1 mM) followed by photoactivation. The NBA/photoactivation treatment was conducted as follows: one hour after NBA injection, the animal was anesthetized (1.5-4% isoflurane) prior to the insertion of a 200 μm fiber optic cannula into the tumor mass. The interior of the tumor was illuminated with 405 nm light (80-85 mW) via a ceramic cannula using the same illumination paradigm which was effective in vitro, specifically 60 seconds of illumination, 60 seconds of no illumination, 30 seconds of illumination, 60 seconds of no illumination, and 60 seconds of illumination. This paradigm is referred to as a “60-30-60” illumination paradigm.
Tumors were measured daily in order to calculate changes in tumor volume using the formula: Tumor Volume(TV)=[…]
The percent change in tumor volume was calculated by normalizing the percent change to the tumor volume recorded on the day of treatment. […]

O=Cc1ccccc1[N+](=O)[O-] [NBA, 2-nitrobenzaldehyde]
Average pHi drop, first flash ([1]; PC12 cells (n=22), 60-30-60 UV flash paradigm, flash 1): 0.72
Average pHi drop, second flash ([1]; PC12 cells (n=22), 60-30-60 UV flash paradigm, flash 2): 0.36
Average pHi drop, third flash ([1]; PC12 cells (n=22), 60-30-60 UV flash paradigm, flash 3): 0.36
Mean pHi before flash photolysis ([1]; PC12 cells, 1 mM NBA, 10 μM DCFDA, after NBA application and prior to photolysis): 7.55±0.025 and 7.55
Mean pHi after flash photolysis ([1]; PC12 cells, 1 mM NBA, after 350 nm UV exposure): 6.37±0.03 and 6.37
Mean change in pHi (Δ pHi) ([1]; PC12 cells, 1 mM NBA, flash photolysis): 1.18 pH units
Effect on spontaneous fictive respiratory motor output and central respiratory chemoreceptor responses [2]: no disruption
Mean pHi before flash paradigm ([3]; MDA-MB-231 cells (n=38), loaded with NBA, before 60-30-60 UV flash): 6.47±0.06
Mean Δ pHi ([3]; MDA-MB-231 cells, NBA, 60-30-60 UV flash): 3.68±0.18 pH units
Mean pHi after flash paradigm ([3]; MDA-MB-231 cells, NBA, after 60-30-60 UV flash): 2.78±0.23
Mean survival from the day of treatment ([4]; one-time NBA + 405 nm (85 mW) 60-30-60 photo-activation, nude mice): 35.2 ± 5.70 days
Increase in survivability vs control aCSF ([4]; one-time NBA photo-activation vs aCSF control, P=0.012): 113.3%
Average pHi drop, first flash ([5]; MCF-7 cells (n=13), 60-30-60 UV flash paradigm, flash 1): 0.68
Average pHi drop, second flash ([5]; MCF-7 cells (n=13), 60-30-60 UV flash paradigm, flash 2): 0.35
Average pHi drop, third flash ([5]; MCF-7 cells (n=13), 60-30-60 UV flash paradigm, flash 3): 0.59
Mean pHi before flash photolysis ([5]; MCF-7 cells, 1 mM NBA, 10 μM DCFDA, before 60-30-60 UV flash paradigm): 7.38±0.13 and 7.38
Mean pHi after flash photolysis ([5]; MCF-7 cells, 1 mM NBA, after 60-30-60 UV flash paradigm): 6.22±0.15 and 6.22
Cell death [6]: 55.3%
Effect on diastolic Ca2+, cellular contraction, spatial pHi regulation [7]: did not alter
Percentage of apoptosis, NBA only ([8]; MCF-7 cells exposed only to NBA, no UV): 2.3%
Percentage of death within 2 hours ([8]; MCF-7 cells incubated in NBA and exposed to UV, within 2 hours): above 90%
Average apoptosis over time ([8]; MCF-7 cells, 1 mM NBA + 60-30-60 UV flash): 98.3±0.3%
Average apoptosis ([9]; NBA + UV flash photolysis): 84.0±1.33%
Percentage of cells exhibiting apoptosis, NBA alone ([9]; NBA alone, no UV (n=47)): 2.1%
Duration of significant reduction in tumor volume vs aCSF control [10]: up to 13 days
